Reference: US9249125B2, “Pyrazole derivatives as p38 MAP inhibitors” (RESPIVERT LIMITED, priority 2012, dated 2016)

Legend:
GSK3α = GSK3α (Homo sapiens (Human), UniProt P49840); assay: GSK 3α enzyme inhibition (FRET, Z-LYTE); format: biochemical
Protocol: (§1) The enzyme inhibitory activities of compounds disclosed herein are determined by FRET using synthetic peptides labelled with both donor and acceptor fluorophores (Z-LYTE, Invitrogen Ltd., Paisley, UK).
The inhibitory activities of compounds of the invention against the GSK 3α enzyme isoform (Invitrogen), are evaluated by determining the level of activation/phosphorylation of the target peptide. The GSK3-α protein (500 ng/mL, 2.5 μL) is mixed with the test compound (2.5 μL at either 4 μg/mL, 0.4 μg/mL, 0.04 μg/mL, or 0.004 μg/mL) for 2 hr at RT. The FRET peptide (8 μM, 2.5 μL), which is a phosphorylation target for GSK3α, and ATP (40 μM, 2.5 μL) are then added to the enzyme/compound mixture and the resulting mixture incubated for 1 hr. Development reagent (protease, 5 μL) is added for 1 hr prior to detection in a fluorescence microplate reader (Varioskan® Flash, ThermoFisher Scientific).
(§2) In all cases, the site-specific protease cleaves non-phosphorylated peptide only and eliminates the FRET signal. Phosphorylation levels of each reaction are calculated using the ratio of coumarin emission (donor) over fluorescein emission (acceptor), for which low ratios indicate high phosphorylation and high ratios indicate low phosphorylation levels.

cSrc = cSrc (Homo sapiens (Human), UniProt P12931); assay: c-Src enzyme inhibition (FRET, Z-LYTE); format: biochemical
Protocol: as §1
(§3) The relevant enzyme (3000 ng/mL or 2000 ng/mL respectively, 2.5 μL) is incubated with the test compound (either 4 μg/mL, 0.4 μg/mL, 0.04 μg/mL, or 0.004 μg/mL, 2.5 μL each) for 2 hr at RT. The FRET peptides (8 μM, 2.5 μL), and appropriate ATP solutions (2.5 μL, 800 μM for c-Src, and 60 μM ATP for Syk) are then added to the enzymes/compound mixtures and incubated for 1 hr. Development reagent (protease, 5 μL) is added for 1 hr prior to detection in a fluorescence microplate reader (Varioskan® Flash, ThermoFisher Scientific).
as §2

Syk = Syk (Homo sapiens (Human), UniProt P43405); assay: Syk enzyme inhibition (FRET, Z-LYTE); format: biochemical
Protocol: as §1, §3, §2

p38 MAPKα = p38 MAPKα (Homo sapiens (Human), UniProt Q16539); assay: p38 MAPKα enzyme inhibition (FRET, Z-LYTE); format: biochemical
Protocol: as §1
The inhibitory activities of test compounds against the p38 MAPKα isoform (MAPK14: Invitrogen), are evaluated indirectly by determining the level of activation/phosphorylation of the down-stream molecule, MAPKAP-K2. The p38 MAPKα protein (80 ng/mL, 2.5 μL) is mixed with the test compound (2.5 μL of either 4 μg/mL, 0.4 μg/mL, 0.04 μg/mL or 0.004 μg/mL) for 2 hr at RT. […] The mixture is incubated for 1 hr at RT. Development reagent (protease, 5 μL) is added for 1 hr prior to detection in a fluorescence microplate reader (Varioskan® Flash, ThermoFisher Scientific).
as §2

[1] = tested on: Poly I:C-induced ICAM-1 expression in BEAS2B cells; assay: Poly I:C-induced ICAM-1 expression in BEAS2B cells; format: cell-based; details: Homo sapiens, BEAS-2B, read-out: Poly IC induced ICAM1 in BEAS2B IC50
Protocol: Poly I:C is used in these studies as a simple, RNA virus mimic. Poly I:C-Oligofectamine mixture (1 μg/mL Poly I:C, ±2% Oligofectamine, 25 uL) (Invivogen Ltd., San Diego, Calif., and Invitrogen, Carlsbad, Calif., respectively) is transfected into BEAS2B cells (human bronchial epithelial cells, ATCC). Cells are pre-incubated with final concentrations of test compounds for 2 hr and the level of ICAM1 expression on the cell surface is determined by cell-based ELISA. At a time point 18 hr after poly I:C transfection, cells are fixed with 4% formaldehyde in PBS (100 μL) and then endogenous peroxidase is quenched by the addition of washing buffer (100 μL, 0.05% Tween in PBS: PBS-Tween) containing 0.1% sodium azide and 1% hydrogen peroxide. Cells are washed with wash-buffer (3×200 μL). and after blocking the wells with 5% milk in PBS-Tween (100 μL) for 1 hr, the cells are incubated with anti-human ICAM-1 antibody (50 μL) (Cell Signaling Technology, Danvers, Mass.) in 1% BSA PBS overnight at 4° C.
The cells are washed with PBS-Tween (3×200 μL) and incubated with the secondary antibody (100 μL) (HRP-conjugated anti-rabbit IgG, Dako Ltd., Glostrup, Denmark). The cells are then incubated with of substrate (50 μL) for 2-20 min, followed by the addition of stop solution (50 μL, 1N H2SO4). The ICAM-1 signal is detected by reading and reading the absorbance at 450 nm against a reference wavelength of 655 nm using a spectrophotometer. The cells are then washed with PBS-Tween (3×200 μL) and total cell numbers in each well are determined by reading absorbance at 595 nm after Crystal Violet staining (50 μL of a 2% solution in PBS) and elution by 1% SDS solution (100 μL) in distilled water. The measured OD 450-655 readings are corrected for cell number by dividing with the OD595 reading in each well.

d-U937 cells = assay: Cell viability: MTT assay; format: cell-based, human; details: 1 μg/mL
Protocol: Differentiated U937 cells are pre-incubated with each test compound (final concentration 1 μg/mL or 10 μg/mL in 200 μL media indicated below) under two protocols: the first for 4 hr in 5% FCS RPMI1640 media and the second in 10% FCS RPMI1640 media for 24 h. The supernatant is replaced with new media (200 μL) and MTT stock solution (10 μL, 5 mg/mL) is added to each well. After incubation for 1 hr the media are removed, DMSO (200 μL) is added to each well and the plates are shaken lightly for 1 hr prior to reading the absorbance at 550 nm. The percentage loss of cell viability is calculated for each well relative to vehicle (0.5% DMSO) treatment. Consequently an apparent increase in cell viability for drug treatment relative to vehicle is tabulated as a negative percentage.

[2] = tested on: LPS-induced IL-8 release in d-U937 cells; assay: LPS-induced IL-8 release in d-U937 cells; format: cell-based; details: Homo sapiens, dU937, read-out: LPS Induced Release of Cytokine in d-937 Cells IL-8 IC50
Protocol: U937 cells, a human monocytic cell line, are differentiated into macrophage-type cells by incubation with PMA (100 ng/mL) for 48 to 72 hr. Cells are pre-incubated with final concentrations of test compound for 2 hr and are then stimulated with LPS (0.1 μg/mL) (from E. coli: O111:B4, Sigma) for 4 hr. The supernatant is collected for determination of TNFα and IL-8 concentrations by sandwich ELISA (Duo-set, R&D systems). […] The relative 50% effective concentration (REC50) is determined from the resultant concentration-response curve. The inhibition of IL-8 production is calculated at each concentration of test compound by comparison with vehicle control. […] (b) LPS-Induced TNFα/IL-8 Release in PBMC Cells

Chain of p38 MAPKα (Q16539 whole entry): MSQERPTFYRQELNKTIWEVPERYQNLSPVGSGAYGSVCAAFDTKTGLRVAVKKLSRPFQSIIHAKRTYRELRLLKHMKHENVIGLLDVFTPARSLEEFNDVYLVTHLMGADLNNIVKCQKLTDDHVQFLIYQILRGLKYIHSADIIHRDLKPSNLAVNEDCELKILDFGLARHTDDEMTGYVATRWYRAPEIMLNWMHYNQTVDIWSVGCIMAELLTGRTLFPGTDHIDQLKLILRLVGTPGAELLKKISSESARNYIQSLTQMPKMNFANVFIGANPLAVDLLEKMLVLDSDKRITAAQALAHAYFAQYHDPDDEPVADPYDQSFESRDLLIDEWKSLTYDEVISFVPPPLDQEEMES
Chain of GSK3α (P49840 whole entry): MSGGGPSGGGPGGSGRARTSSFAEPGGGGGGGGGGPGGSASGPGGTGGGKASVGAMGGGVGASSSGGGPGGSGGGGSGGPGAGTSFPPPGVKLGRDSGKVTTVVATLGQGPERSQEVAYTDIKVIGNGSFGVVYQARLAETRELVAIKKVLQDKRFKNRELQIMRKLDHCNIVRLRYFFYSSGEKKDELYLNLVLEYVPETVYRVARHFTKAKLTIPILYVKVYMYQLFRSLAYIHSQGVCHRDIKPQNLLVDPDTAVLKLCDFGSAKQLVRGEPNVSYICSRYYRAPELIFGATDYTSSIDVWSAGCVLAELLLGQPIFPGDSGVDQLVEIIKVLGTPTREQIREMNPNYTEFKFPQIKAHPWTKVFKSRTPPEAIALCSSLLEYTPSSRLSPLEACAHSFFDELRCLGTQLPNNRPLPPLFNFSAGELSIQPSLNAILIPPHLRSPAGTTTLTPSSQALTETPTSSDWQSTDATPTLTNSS
Chain of cSrc (P12931 whole entry, looked up): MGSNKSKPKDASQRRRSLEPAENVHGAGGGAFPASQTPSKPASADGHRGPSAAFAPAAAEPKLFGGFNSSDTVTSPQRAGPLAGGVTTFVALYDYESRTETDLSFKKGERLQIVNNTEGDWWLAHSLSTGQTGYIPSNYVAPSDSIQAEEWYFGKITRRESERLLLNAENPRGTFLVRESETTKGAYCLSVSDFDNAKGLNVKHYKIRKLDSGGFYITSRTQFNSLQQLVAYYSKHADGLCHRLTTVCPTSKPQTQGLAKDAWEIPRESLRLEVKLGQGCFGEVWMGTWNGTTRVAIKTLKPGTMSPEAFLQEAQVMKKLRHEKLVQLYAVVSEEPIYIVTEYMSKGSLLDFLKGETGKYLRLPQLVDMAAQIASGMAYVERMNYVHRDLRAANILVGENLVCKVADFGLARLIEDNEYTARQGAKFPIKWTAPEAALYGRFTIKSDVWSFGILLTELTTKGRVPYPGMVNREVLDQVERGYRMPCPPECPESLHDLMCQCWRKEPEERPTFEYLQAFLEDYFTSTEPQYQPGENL

Row | Structure (SMILES) | IC50 (GSK3α) | IC50 (cSrc) | IC50 (Syk) | IC50 (p38 MAPKα) | IC50 [2] | IC50 [1] | MTT Assay Cell viability at time point in d-U937 cells 4 h (d-U937 cells) | MTT Assay Cell viability at time point in d-U937 cells 24 h (d-U937 cells)
1 | CC(C)(C)c1cc(NC(=O)Nc2ccc(Oc3ccnc(Nc4ccc5[nH]ncc5c4)c3)c3ccccc23)n(-c2cccc(OCCN3CCOCC3)c2)n1 [Example 52] | 4970 nM | 3 nM | 18 nM | 22 nM |  | 10.2 nM | −ve (−ve and +ve indicate that the value is below and above respectively, the no significant effect threshold, defined as 30% inhibition at 1 μg/mL at the time point indicated.) | −ve (−ve and +ve indicate that the value is below and above respectively, the no significant effect threshold, defined as 30% inhibition at 1 μg/mL at the time point indicated.)
2 | Cc1cc(Nc2cc(Oc3ccc(NC(=O)Nc4cc(C(C)(C)C)nn4-c4ccc(OCCN5CCOCC5)cc4)c4ccccc34)ccn2)cc2cn[nH]c12 [Example 68] | 3040 nM | 3 nM | < 1 nM | 40 nM |  | 7.6 nM | −ve (−ve and +ve indicate that the value is below and above respectively, the no significant effect threshold, defined as 30% inhibition at 1 μg/mL at the time point indicated.) | −ve (−ve and +ve indicate that the value is below and above respectively, the no significant effect threshold, defined as 30% inhibition at 1 μg/mL at the time point indicated.)
3 | COc1ccc(-n2nc(C3CCOC3)cc2NC(=O)Nc2ccc(Oc3ccnc(Nc4ccc5[nH]ncc5c4)n3)c3ccccc23)cc1 (stereo not drawn) [Example 8, 1-(4-((2-((1H-Indazol-5-yl)amino)pyrimidin-4-yl)oxy)naphthalen-1-yl)-3-(1-(4-methoxyphenyl)-3-(tetrahydrofuran-3-yl)-1H-pyrazol-5-yl)urea] | 837 nM | 2 nM | 8 nM | 7 nM | 3.6 nM | 16.8 nM | −ve (−ve and +ve indicate that the value is below and above respectively, the no significant effect threshold, defined as 30% inhibition at 1 μg/mL at the time point indicated.) | −ve (−ve and +ve indicate that the value is below and above respectively, the no significant effect threshold, defined as 30% inhibition at 1 μg/mL at the time point indicated.)
4 | Cc1cc(Nc2cc(Oc3ccc(NC(=O)Nc4cc(C(C)(C)C)nn4-c4ccc(OCCN(C)C)cc4)c4ccccc34)ccn2)cc2cn[nH]c12 [Example 58] | 1260 nM | < 1 nM |  | < 1 nM |  | 8.3 nM | −ve (−ve and +ve indicate that the value is below and above respectively, the no significant effect threshold, defined as 30% inhibition at 1 μg/mL at the time point indicated.) | −ve (−ve and +ve indicate that the value is below and above respectively, the no significant effect threshold, defined as 30% inhibition at 1 μg/mL at the time point indicated.)
5 | CC(C)c1cc(NC(=O)Nc2ccc(Oc3ccnc(Nc4ccc5[nH]ncc5c4)c3)c3ccccc23)n(-c2cccc(OCCN3CCOCC3)c2)n1 [Example 51] | 4900 nM | < 1 nM | < 1 nM | 2 nM |  | 23.8 nM | −ve (−ve and +ve indicate that the value is below and above respectively, the no significant effect threshold, defined as 30% inhibition at 1 μg/mL at the time point indicated.) | −ve (−ve and +ve indicate that the value is below and above respectively, the no significant effect threshold, defined as 30% inhibition at 1 μg/mL at the time point indicated.)

Now from value to molecule, other results behind:

Row | IC50 (GSK3α) | IC50 (cSrc) | IC50 (Syk) | IC50 (p38 MAPKα) | IC50 [2] | Structure (SMILES) | IC50 [1] | MTT Assay Cell viability at time point in d-U937 cells 4 h (d-U937 cells) | MTT Assay Cell viability at time point in d-U937 cells 24 h (d-U937 cells)
6 | 1210 nM | 1 nM | 1 nM | 20 nM | 1.6 nM | Cc1cc(Nc2nccc(Oc3ccc(NC(=O)Nc4cc(C(C)(C)C)nn4-c4ccc(OCCN5CCOCC5)nc4)c4ccccc34)n2)cc2cn[nH]c12 [Example 91, 1-(3-(tert-butyl)-1-(6-(2-morpholinoethoxy)pyridin-3-yl)-1H-pyrazol-5-yl)-3-(4-((2-((7-methyl-1H-indazol-5-yl)amino)pyrimidin-4-yl)oxy)naphthalen-1-yl)urea] | 1.9 nM | −ve (−ve and +ve indicate that the value is below and above respectively, the no significant effect threshold, defined as 30% inhibition at 1 μg/mL at the time point indicated.) | −ve (−ve and +ve indicate that the value is below and above respectively, the no significant effect threshold, defined as 30% inhibition at 1 μg/mL at the time point indicated.)
7 | 1800 nM | 5 nM | 4 nM | 69 nM | 2.6 nM | Cc1cc(Nc2nccc(Oc3ccc(NC(=O)Nc4cc(C(C)(C)C)nn4-c4ccc(OCCN5CCOCC5)cc4)c4ccccc34)n2)cc2cn[nH]c12 [Example 73, 1-(3-(tert-butyl)-1-(4-(2-morpholinoethoxy)phenyl)-1H-pyrazol-5-yl)-3-(4-((2-((7-methyl-1H-indazol-5-yl)amino)pyrimidin-4-yl)oxy)naphthalen-1-yl)urea] | 2.2 nM | −ve (−ve and +ve indicate that the value is below and above respectively, the no significant effect threshold, defined as 30% inhibition at 1 μg/mL at the time point indicated.) | −ve (−ve and +ve indicate that the value is below and above respectively, the no significant effect threshold, defined as 30% inhibition at 1 μg/mL at the time point indicated.)
